The values that follow come from publication PMC3914206.

What all share (assay type): binding
The target in experiment [1] is T1, panel of 442 kinases (Homo sapiens, UniProt Q9NWZ3).
T1 construct: purchased KINOMEscan
T1 sequence (Q9NWZ3 1-460): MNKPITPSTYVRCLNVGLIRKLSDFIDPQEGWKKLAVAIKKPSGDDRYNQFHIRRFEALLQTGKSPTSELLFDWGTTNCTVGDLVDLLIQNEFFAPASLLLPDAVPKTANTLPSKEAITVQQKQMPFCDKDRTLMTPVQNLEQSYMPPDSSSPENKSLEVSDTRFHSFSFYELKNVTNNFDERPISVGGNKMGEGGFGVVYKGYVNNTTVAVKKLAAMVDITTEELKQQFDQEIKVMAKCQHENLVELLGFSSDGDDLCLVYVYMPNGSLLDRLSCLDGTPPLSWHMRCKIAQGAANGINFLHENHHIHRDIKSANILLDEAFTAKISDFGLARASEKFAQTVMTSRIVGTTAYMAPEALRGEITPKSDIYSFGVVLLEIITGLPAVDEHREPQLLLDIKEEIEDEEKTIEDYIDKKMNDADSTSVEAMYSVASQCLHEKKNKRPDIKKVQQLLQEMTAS
The conditions noted are these: Compound Concentration 10 µM. From the text:
(§1) We assessed the selectivity of members of this scaffold using the KINOMEscan methodology across a near comprehensive panel of 442 kinases [[18,27]].

Experiment [2] concerns the target T2, panel of 442 kinases (Homo sapiens, UniProt Q02763).
T2 construct: purchased KINOMEscan
The settings on record: kinase TIE2; compound concentration 10 µM.
Source text: as §1

In experiment [3] the target is T3, panel of 442 kinases (Homo sapiens, UniProt P53667).
T3 construct: purchased KINOMEscan
The settings on record: Compound Concentration 10 µM.
Source text: as §1

T3 sequence (P53667 whole entry): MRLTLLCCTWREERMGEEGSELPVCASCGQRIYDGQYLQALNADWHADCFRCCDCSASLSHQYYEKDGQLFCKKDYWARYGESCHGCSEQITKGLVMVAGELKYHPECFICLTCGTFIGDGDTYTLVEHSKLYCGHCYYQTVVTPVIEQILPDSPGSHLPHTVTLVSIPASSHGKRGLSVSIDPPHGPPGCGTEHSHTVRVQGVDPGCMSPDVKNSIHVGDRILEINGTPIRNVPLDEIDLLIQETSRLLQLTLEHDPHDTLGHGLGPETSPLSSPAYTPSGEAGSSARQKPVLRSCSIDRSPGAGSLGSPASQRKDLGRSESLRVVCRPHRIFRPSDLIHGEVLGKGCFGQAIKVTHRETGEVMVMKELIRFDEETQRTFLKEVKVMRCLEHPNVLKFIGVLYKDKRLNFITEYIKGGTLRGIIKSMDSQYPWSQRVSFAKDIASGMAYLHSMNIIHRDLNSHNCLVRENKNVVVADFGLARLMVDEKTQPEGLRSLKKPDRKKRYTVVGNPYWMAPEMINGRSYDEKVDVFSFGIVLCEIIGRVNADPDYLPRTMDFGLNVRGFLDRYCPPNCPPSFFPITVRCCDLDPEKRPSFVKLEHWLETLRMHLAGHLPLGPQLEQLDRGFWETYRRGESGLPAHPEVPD
T2 sequence (Q02763 23-1124): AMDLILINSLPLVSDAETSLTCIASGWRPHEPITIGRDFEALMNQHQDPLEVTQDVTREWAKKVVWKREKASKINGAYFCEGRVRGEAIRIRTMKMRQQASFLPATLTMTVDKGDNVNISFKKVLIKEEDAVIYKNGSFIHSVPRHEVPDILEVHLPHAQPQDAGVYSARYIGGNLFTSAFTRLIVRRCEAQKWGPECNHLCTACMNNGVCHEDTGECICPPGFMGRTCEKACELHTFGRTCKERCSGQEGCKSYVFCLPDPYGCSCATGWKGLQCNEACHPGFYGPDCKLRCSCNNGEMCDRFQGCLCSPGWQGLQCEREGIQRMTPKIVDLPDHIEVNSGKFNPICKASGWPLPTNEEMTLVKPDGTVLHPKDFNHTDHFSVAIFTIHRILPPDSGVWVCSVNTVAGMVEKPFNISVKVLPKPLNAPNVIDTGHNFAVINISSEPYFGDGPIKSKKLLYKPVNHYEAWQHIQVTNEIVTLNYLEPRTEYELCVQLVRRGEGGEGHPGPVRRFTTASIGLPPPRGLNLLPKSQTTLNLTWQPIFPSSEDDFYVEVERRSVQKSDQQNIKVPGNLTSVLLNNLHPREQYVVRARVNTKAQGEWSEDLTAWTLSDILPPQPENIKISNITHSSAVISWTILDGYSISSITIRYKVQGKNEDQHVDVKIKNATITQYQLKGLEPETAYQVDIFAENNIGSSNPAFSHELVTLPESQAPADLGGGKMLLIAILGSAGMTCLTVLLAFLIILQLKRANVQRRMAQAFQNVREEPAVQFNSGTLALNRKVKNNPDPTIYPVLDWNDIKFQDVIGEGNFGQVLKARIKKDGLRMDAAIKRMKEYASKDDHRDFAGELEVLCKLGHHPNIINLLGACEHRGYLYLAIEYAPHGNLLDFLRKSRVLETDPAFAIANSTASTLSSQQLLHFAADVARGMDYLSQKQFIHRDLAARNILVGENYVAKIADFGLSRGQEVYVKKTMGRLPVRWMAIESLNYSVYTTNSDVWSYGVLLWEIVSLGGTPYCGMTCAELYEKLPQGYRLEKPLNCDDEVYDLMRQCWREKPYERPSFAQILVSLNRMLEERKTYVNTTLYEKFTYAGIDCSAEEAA

Regarding `CCOc1cc(C(=O)N2CCC(N3CCN(C)CC3)CC2)ccc1Nc1ncc2c(n1)N(C1CCCC1)c1ccccc1C(=O)N2C` [Compound 26], on panel of 442 kinases [1], the “KINOMEscan: IRAK4” value is listed as 100. For the same compound, the “% Ctrl, TIE2” value on panel of 442 kinases [2] was found to be 100 % Ctrl. Moreover, the “KINOMEscan: LIMK1” value at panel of 442 kinases [3] was determined as 100.
As for `COc1cc(C(=O)N2CCC(N3CCN(C)CC3)CC2)ccc1Nc1ncc2c(n1)N1CCc3cccc(c31)C(=O)N2C` [Compound 24], the “% Ctrl, TIE2” value at panel of 442 kinases [2] is reported as 79 % Ctrl.
`COc1cc(C(=O)N2CCC(N3CCN(C)CC3)CC2)ccc1Nc1ncc2c(n1)N(C)c1ccccc1C(=O)N2C` [15 (LRRK2-IN-1)]: the “KINOMEscan: IRAK4” value at panel of 442 kinases [1] is 83. Also, the “% Ctrl, TIE2” value on panel of 442 kinases [2] stood at 100 % Ctrl. The “KINOMEscan: LIMK1” value at panel of 442 kinases [3] is 95.
`COc1cc(C(=O)N2CCC(N3CCN(C)CC3)CC2)ccc1Nc1ncc2c(n1)N(C1CCCC1)c1ccccc1C(=O)N2C` [Compound 25, 11-cyclopentyl-2-((2-methoxy-4-(4-(4-methylpiperazin-1-yl)piperidine-1-carbonyl)phenyl)amino)-5-methyl-5H-benzo[e]pyrimido[5,4-b][1,4]diazepin-6(11H)-one]: the “KINOMEscan: IRAK4” value on panel of 442 kinases [1] came to 100. Besides, at panel of 442 kinases [2], the “% Ctrl, TIE2” value stood at 100 % Ctrl. Further, the “KINOMEscan: LIMK1” value on panel of 442 kinases [3] was 93.
